These results are taken from patent US20240415804A1, “METHOD OF TREATING PANCREATIC CANCER” (University of South Florida, priority 2022, published 2024).

What all share (settings): miR-155 inhibitor 100 nM, 24 h, vs scrambled miRNA
The test system of one data set is MiaPaCa-2 cells. Briefly: MTT cell viability assay, MiaPaCa-2. Format: cell-based, human. Here is the method:
(§1) The methyl thiazol tetrazolium (MTT) assay was performed as described previously^58. Briefly, MiaPaCa-2, Panc02 and UN-KC-6141 cells were seeded in 96-well plates at a density of 3000 cells/well and allowed to attach overnight. PC cells were then treated with API (40 μM) or DMSO (1%) as vehicle control for 24 h at 37° C. in 5% CO2 incubator. After 24 h, media was replaced with 20 μL of MTT (1 mg/mL) (Sigma-Aldrich) and incubated for 3 h at 37° C. in 5% CO2. MTT was replaced with DMSO, and absorbance was read at 570 nm.
(§2) MiaPaCa-2, Panc02 and UN-KC-6141 cells (2×10^5) were grown in 2 mL of growth medium in a 6-well tissue culture plate for 18-24 h until 60-80% confluency. The following solutions were prepared: Solution A) For each transfection, diluted 1 μL of miRNA-155 inhibitors (1 μM) (Table 2) or scrambled negative control miRNA (1 μM) (Qiagen, Germantown, MD, USA) into 50 μL Opti-MEM Transfection Medium (Invitrogen, Waltham, MA, USA). Solution B) For each transfection, diluted 3 μL of Hi-Perfect Transfection Reagent into 50 μL Opti-MEM Transfection Medium. Solution A was added directly to Solution B, mixed gently and the mixture incubated for 10-15 min at room temperature. […]

The test system of data set [1] is miR-155. Briefly: miR-155 gene expression by RT-qPCR in MiaPaCa-2 cells. Format: cell-based, human. The procedure:
(§3) MiR-155 is known to be overexpressed in different cancers, including PC^21, 23. The inventors first assessed whether apigenin could modulate the expression of miR-155 in PC cells. Murine PC cell lines Panc02 and UN-KC-6141 as well as the human PC cell line MiaPaCa-2 were treated with API (40 μM) or DMSO vehicle for 24 h and the expression of miR-155 was examined using RT-qPCR assay. […] Since API is known to inhibit the growth of cancer cells, including PC cells^39-43, 47-50, the same PC cell lines were treated with API (40 μM) or DMSO (vehicle) for 24 h and examined cell viability using MTT assay. […] Moreover, Panc02 and UN-KC-6141 cells were then treated with API at a dose dependent concentration (10, 20, 30, 40, 50 μM) and detected apoptosis using flow cytometry (Annexin V and PI).
(§4) miR-155 is implicated in the development of pancreatic tumors from pancreatic intraepithelial neoplasia (PanIN) lesions, and is overexpressed in PC^23. The inventors examined whether the depletion of miR-155 modulated PC viability. Murine and human PC cell lines were transfected with miR-155 inhibitor (i.e., MMU-MIR-155-5P/HSA-MIR-155-5P) and scrambled miRNA at a concentration of 100 nM for 24 h and cell viability determined using an MTT assay. The expression of miR-155 was examined using an RT-qPCR assay as well. […]
(In general: Quantitative PCR measures a nucleic acid by following its amplification.)

In data set [2] the test system is miR-155. Briefly: miR-155 gene expression by RT-qPCR in Panc02 cells. Type of data set: cell-based, mouse. The procedure:
as §3, §4

The subject of another data set is Panc02 cells. The experiment in a line: MTT cell viability assay, Panc02. Type of data set: cell-based, mouse. Here is the method: as §1, §2
A general note: Tetrazolium assays rely on reduction of a dye to a coloured formazan, in cell work by metabolically active cells.

The next data set concerns UN-KC-6141 cells. The experiment in a line: MTT cell viability assay, UN-KC-6141. Format: cell-based, mouse. The procedure: as §1, §2
The subject of data set [3] is miR-155. The experiment in a line: miR-155 gene expression by RT-qPCR in UN-KC-6141 cells. Format: cell-based, mouse. The procedure:
as §3, §4

As to “HSA-MIR-155-5P: Qiagen miRCURY LNA miRNA inhibitor (human), sequence 5′-3′ CCTATCACGATTAGCATT, SEQ ID NO: 2 (LNA-modified commercial inhibitor, pattern not given here; listed 3' to 5'; listed as Homo sapiens) [reference compound]”, the “cell viability (MTT)” value in the data set on MiaPaCa-2 cells is recorded as “suppressed”. Further, in the data set on miR-155 [1], the miR-155 gene expression entry is recorded as “significantly depleted”.

As to “MMU-MIR-155-5P: Qiagen miRCURY LNA miRNA inhibitor (mouse), sequence 5′-3′ CCCCTATCACAATTACCATT, SEQ ID NO: 1 (CCCCTATCACAATTAGCATT; LNA-modified commercial inhibitor, pattern not given here; listed 3' to 5'; listed as Mus musculus) [reference compound]”, the miR-155 gene expression entry with miR-155 [2] and with miR-155 [3] was “significantly depleted” each time. For the same substance, the “cell viability (MTT)” value with Panc02 cells and in the data set on UN-KC-6141 cells was “suppressed” each time.
